Laboratory results: ChEMBL document CHEMBL5223171, “Synthesis and discovery of Baylis-Hillman adducts as potent and selective thioredoxin reductase inhibitors for cancer treatment” (Bioorg Med Chem, 2023)

How the values were obtained:
[1] = test system: HepG2; assay: Cytotoxicity against human HepG2 cells assessed as reduction in cell viability incubated for 72 hrs by MTT assay; assay type: functional, cell-based; conditions: HepG2, 72 h
[2] = test system: HeLa; assay: Cytotoxicity against human HeLa cells assessed as reduction in cell viability incubated for 72 hrs by MTT assay; assay type: functional, cell-based
[3] = test system: A549; assay: Cytotoxicity against human A549 cells assessed as reduction in cell viability incubated for 72 hrs by MTT assay; assay type: functional, cell-based; conditions: A549, 72 h
[4] = test system: HepG2; assay: Inhibition of colony formation in human HepG2 cells at 5 uM incubated for 5 days by crystal violet staining assay; assay type: functional; conditions: HepG2, 120 h, time 5 day
[5] = test system: HepG2; assay: Inhibition of colony formation in human HepG2 cells assessed as reduction in colony number at 5 to 10 uM incubated for 5 days by crystal violet staining assay; assay type: functional, cell-based; conditions: dose 5-10 µM, time 5.0 day
[6] = test system: HepG2; assay: Inhibition of cell migration in human HepG2 cells at 5 to 10 uM incubated upto 48 hrs by wound healing assay; assay type: functional, cell-based; conditions: dose 5-10 µM
[7] = test system: HepG2; assay: Inhibition of TrxR in human HepG2 cells at 2.5 to 10 uM incubated for 48 hrs by NBL-SS probe based assay; assay type: cell-based; conditions: dose 2.5-10 µM
[8] = test system: HepG2; assay: Induction of ROS generation in human HepG2 cells assessed as increase in intracellular ROS level at 2.5 to 10 uM incubated for 48 hrs by DCFH-DA staining based fluorescence microscopy; assay type: functional, cell-based; conditions: dose 2.5-10 µM
[9] = test system: HepG2; assay: Induction of cell cycle arrest in human HepG2 cells assessed as accumulation at S phase at 10 uM incubated for 48 hrs by propidium iodide staining based flow cytometry (reference value: 20.55%); assay type: functional
[10] = Inhibition of recombinant TrxR (unknown origin) using DTNB as substrate incubated for 2 hrs in presence of NADPH; parameters: species or system Homo sapiens
[11] = test system: HepG2; assay: Induction of cell cycle arrest in human HepG2 cells assessed as accumulation at G1 phase at 10 uM incubated for 48 hrs by propidium iodide staining based flow cytometry (reference value: 64.6%); assay type: functional
[12] = test system: HepG2; assay: Induction of cell cycle arrest in human HepG2 cells assessed as accumulation at G2 phase at 10 uM incubated for 48 hrs by propidium iodide staining based flow cytometry (reference value: 14.85%); assay type: functional
[13] = test system: HepG2; assay: Inhibition of TrxR in human HepG2 cells at 2.5 to 10 uM incubated for 52 hrs by TRFS-green staining based fluorescence microscopic analysis; assay type: cell-based; conditions: dose 2.5-10 µM
[14] = molecular target: Thioredoxin reductase (Escherichia coli (strain K12), UniProt P0A9P4); assay: Inhibition of Escherichia coil TrxR incubated for 2 hrs in presence of DTT and insulin
[15] = molecular target: Thioredoxin reductase (Escherichia coli (strain K12)) (UniProt P0A9P4); assay: Inhibition of Escherichia coil TrxR at 10 to 40 uM incubated for 2 hrs in presence of DTT and insulin; conditions: dose 10-40 µM
[16] = species: Homo sapiens; assay: Inhibition of recombinant TrxR (unknown origin) using DTNB as substrate at 10 to 40 uM incubated for 2 hrs in presence of NADPH; conditions: dose 10-40 µM

Thioredoxin reductase (Escherichia coli (strain K12)), sequence (P0A9P4 whole entry): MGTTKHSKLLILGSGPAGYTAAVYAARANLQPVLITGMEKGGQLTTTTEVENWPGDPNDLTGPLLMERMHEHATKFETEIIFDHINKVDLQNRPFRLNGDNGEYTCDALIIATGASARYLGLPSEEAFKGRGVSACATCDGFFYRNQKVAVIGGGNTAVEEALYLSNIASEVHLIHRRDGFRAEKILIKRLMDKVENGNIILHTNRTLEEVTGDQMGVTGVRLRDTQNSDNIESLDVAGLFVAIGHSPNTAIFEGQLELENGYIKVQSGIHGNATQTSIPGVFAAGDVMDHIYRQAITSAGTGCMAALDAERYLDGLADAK
Thioredoxin reductase, sequence (P0A9P4 whole entry): as above

SMILES | IC50 [1] [µM] | IC50 [2] [µM] | IC50 [3] [µM] | further results
CCC(C)SSc1ncc[nH]1 (configuration not stated) [PX-12] | 12 | 9 | > 20 | –
C=C(COC(=O)Nc1ccc(C)cc1)C(=O)NC(CC(C)C)C(=O)NC(C)(C)C (configuration not stated) | > 20 | > 20 | > 20 | –
C=C(COC(=O)Nc1ccc(C)cc1)C(=O)NC(C(=O)NCC(=O)OCC)c1ccc(Cl)cc1 (configuration not stated) | > 20 | > 20 | > 20 | –
C=C(COC(=O)Nc1ccc(C)cc1)C(=O)NC(C(=O)NC(C)(C)C)c1ccc(Br)cc1 (configuration not stated) | > 20 | > 20 | > 20 | –
C=C(COC(=O)Nc1ccc(C)cc1)C(=O)NC(C(=O)NCC(=O)OCC)c1ccc(Br)cc1 (configuration not stated) | 18.8 | > 20 | > 20 | –
C=C(COC(=O)Nc1ccc(C)cc1)C(=O)NC(CC(C)C)C(=O)NCC(=O)OCC (configuration not stated) | 4.7 | > 20 | > 20 | inhibition at 5 µM [4]: 67.1%; inhibition [5]: Dose-Dependent Effect; inhibition [6]: Dose-Dependent Effect; inhibition [7]: Dose-Dependent Effect; Activity [8]: Dose-Dependent Effect; Activity [9]: 17.74%; IC50 [10]: 4.18 µM; Activity [11]: 72.24%; Activity [12]: 10.02%; inhibition [13]: Dose-Dependent Effect; IC50 [14]: 16.6 µM; inhibition [15]: Dose-Dependent Effect; inhibition [16]: Dose-Dependent Effect
C=C(COC(=O)Nc1ccc(C)cc1)C(=O)NC(C(=O)NCC(=O)OCC)c1ccc(F)cc1 (configuration not stated) | 17.6 | > 20 | > 20 | –
C=C(COC(=O)Nc1ccc(C)cc1)C(=O)NC(C(=O)NC(C)(C)C)c1ccc(Cl)cc1 (configuration not stated) | 11.6 | > 20 | > 20 | –
C=C(COC(=O)Nc1ccc(C)cc1)C(=O)NC(C(=O)NCC(=O)OCC)c1ccc(Cl)cc1Cl (configuration not stated) | > 20 | > 20 | > 20 | –
C=C(COC(=O)Nc1ccc(C)cc1)C(=O)NC(C(=O)NCC(=O)OCC)c1ccccc1 (configuration not stated) | 11.5 | > 20 | > 20 | –
C=C(COC(=O)Nc1ccc(C)cc1)C(=O)NC(C(=O)NC(C)(C)C)c1ccc(F)cc1 (configuration not stated) | > 20 | > 20 | > 20 | –
C=C(COC(=O)Nc1ccc(C)cc1)C(=O)NC(C(=O)NC(C)(C)C)c1ccc(Cl)cc1Cl (configuration not stated) | > 20 | > 20 | > 20 | –
C=C(COC(=O)Nc1ccc(C)cc1)C(=O)NC(C(=O)NC(C)(C)C)c1ccccc1 (configuration not stated) | > 20 | > 20 | > 20 | –
